Measured values as given in patent US10968215B2 (SHANGHAI HAIHE PHARMACEUTICAL CO., LTD., priority 2016, dated 2021).

target: PRC2 complex (EZH2 Y641F/EED/SUZ12/RbAp48/AEBP2) (Homo sapiens (Human), UniProt Q15910, Y641F); assay: Activity of a compound to PRC2 complex (EZH2 Y641F), HTRF; conditions: not given
Sequence (Q15910 whole entry Y641F): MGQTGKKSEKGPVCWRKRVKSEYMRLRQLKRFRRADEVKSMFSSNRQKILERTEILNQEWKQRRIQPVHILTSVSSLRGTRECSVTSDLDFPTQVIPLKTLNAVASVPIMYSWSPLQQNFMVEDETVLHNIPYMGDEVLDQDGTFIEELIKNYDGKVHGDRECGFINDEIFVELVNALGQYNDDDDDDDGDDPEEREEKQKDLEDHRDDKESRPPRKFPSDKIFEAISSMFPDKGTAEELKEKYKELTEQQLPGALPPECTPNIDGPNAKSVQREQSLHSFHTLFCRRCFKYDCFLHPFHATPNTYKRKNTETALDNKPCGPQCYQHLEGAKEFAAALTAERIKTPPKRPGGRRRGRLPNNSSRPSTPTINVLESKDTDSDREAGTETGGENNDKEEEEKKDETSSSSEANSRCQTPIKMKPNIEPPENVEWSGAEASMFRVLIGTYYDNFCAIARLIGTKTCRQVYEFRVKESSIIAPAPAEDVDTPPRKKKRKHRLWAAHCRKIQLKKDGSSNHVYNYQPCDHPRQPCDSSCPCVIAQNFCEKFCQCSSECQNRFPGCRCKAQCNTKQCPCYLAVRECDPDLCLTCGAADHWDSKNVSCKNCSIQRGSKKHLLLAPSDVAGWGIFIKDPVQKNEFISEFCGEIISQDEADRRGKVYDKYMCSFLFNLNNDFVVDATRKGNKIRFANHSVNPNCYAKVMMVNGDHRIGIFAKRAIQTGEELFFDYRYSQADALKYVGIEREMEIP
Sequence (O75530 whole entry partner): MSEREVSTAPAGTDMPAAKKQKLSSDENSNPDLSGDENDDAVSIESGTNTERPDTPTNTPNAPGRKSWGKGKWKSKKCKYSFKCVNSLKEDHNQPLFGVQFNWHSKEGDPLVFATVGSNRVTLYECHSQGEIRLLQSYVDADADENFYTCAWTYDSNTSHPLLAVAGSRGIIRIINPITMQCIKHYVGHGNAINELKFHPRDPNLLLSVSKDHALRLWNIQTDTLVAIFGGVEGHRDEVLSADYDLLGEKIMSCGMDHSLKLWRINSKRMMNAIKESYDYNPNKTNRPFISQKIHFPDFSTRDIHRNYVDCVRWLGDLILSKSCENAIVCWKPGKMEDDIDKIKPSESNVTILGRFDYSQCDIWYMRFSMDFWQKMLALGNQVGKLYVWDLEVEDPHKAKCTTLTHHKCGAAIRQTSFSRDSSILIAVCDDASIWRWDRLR
Sequence (Q15022 whole entry partner): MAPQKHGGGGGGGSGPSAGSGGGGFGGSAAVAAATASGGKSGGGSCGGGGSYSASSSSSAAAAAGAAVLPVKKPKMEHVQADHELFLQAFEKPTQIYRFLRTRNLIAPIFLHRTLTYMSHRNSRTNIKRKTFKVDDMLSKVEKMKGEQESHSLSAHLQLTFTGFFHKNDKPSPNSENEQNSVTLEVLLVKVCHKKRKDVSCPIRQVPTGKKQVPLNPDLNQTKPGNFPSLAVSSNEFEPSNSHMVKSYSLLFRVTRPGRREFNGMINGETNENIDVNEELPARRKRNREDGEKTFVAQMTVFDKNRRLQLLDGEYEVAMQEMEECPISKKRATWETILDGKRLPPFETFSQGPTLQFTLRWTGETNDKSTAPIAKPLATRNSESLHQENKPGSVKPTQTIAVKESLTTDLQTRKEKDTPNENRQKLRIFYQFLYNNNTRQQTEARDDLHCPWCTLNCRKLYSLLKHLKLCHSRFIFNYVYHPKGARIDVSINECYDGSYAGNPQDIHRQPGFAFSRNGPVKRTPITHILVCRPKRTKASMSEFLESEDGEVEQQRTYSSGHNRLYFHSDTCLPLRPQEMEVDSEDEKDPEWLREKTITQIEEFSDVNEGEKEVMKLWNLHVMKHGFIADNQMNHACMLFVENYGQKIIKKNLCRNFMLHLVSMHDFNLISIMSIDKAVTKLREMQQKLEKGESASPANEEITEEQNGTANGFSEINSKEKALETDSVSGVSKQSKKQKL
Sequence (Q09028 whole entry partner): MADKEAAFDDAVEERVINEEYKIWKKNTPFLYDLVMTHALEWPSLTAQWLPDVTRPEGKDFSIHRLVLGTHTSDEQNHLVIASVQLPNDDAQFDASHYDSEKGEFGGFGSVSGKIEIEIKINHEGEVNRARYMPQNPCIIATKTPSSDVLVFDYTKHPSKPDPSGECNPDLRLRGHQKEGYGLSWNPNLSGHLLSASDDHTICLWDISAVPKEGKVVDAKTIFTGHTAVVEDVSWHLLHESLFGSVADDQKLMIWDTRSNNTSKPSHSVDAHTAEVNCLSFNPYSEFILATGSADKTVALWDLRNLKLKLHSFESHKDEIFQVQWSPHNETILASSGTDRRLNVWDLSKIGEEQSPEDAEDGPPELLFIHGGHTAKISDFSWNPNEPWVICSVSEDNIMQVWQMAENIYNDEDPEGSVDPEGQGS
Sequence (Q6ZN18 whole entry partner): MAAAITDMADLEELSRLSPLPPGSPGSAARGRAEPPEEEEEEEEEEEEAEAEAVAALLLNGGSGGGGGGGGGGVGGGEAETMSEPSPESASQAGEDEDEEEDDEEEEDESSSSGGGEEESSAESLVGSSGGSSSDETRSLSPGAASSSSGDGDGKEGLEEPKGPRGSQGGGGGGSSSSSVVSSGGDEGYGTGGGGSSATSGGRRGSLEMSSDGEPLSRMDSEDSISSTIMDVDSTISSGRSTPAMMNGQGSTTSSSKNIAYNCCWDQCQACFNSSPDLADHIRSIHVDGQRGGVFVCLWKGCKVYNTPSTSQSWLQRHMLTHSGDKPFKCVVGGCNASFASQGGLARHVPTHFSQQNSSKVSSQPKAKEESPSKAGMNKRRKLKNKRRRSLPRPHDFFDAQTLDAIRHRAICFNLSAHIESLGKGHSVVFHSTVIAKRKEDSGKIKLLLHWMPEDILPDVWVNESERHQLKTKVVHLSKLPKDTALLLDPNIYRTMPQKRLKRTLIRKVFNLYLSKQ

Q: For `COc1cc(C)[nH]c(=O)c1CNC(=O)c1cc2c(-c3ccc(F)cc3)ccn2c(C(C)N2CCN(CC(F)(F)F)CC2)c1C` (centres unmarked) [Compound 162, 1-(4-fluorophenyl)-N-((4-methoxy-6-methyl-2-oxo-1,2-dihydropyridin-3-yl)methyl)-6-methyl-5-(1-(4-(2,2,2-trifluoroethyl)piperazin-1-yl)ethyl)indolizine-7-carboxamide], which IC50 is on record?
A: < 100 nM

Q: How did the IC50 turn out when `COc1cc(C)[nH]c(=O)c1CNC(=O)c1cc2c(-c3ccnc(N(C)C)c3)ccn2c(C(C)N2CCN(CC(F)(F)F)CC2)c1C` (centres unmarked) [Compound 170, 1-(2-(dimethylamino)pyridin-4-yl)-N-((4-methoxy-6-methyl-2-oxo-1,2-dihydropyridin-3-yl)methyl)-6-methyl-5-(1-(4-(2,2,2-trifluoroethyl)piperazin-1-yl)ethyl)indolizine-7-carboxamide] was run?
A: < 100 nM

Q: Which IC50 does the source give for `CNc1cc(-c2ccn3c(C(C)N4CCN(CC(F)(F)F)CC4)c(C)c(C(=O)NCc4c(OC)cc(C)[nH]c4=O)cc23)ccn1` (centres unmarked) [Compound 180, N-((4-methoxy-6-methyl-2-oxo-1,2-dihydropyridin-3-yl)methyl)-6-methyl-1-(2-(methylamino)pyridin-4-yl)-5-(1-(4-(2,2,2-trifluoroethyl)piperazin-1-yl)ethyl)indolizine-7-carboxamide] here?
A: < 100 nM

same assay, conditions: read-out: IC50 (EZH2_Y641F); EZH2 Y641F PRC2 complex, HTRF; class symbols

Q: For `CNc1cc(-c2ccn3c([C@H](C)N4CCN(CC(F)(F)F)CC4)c(C)c(C(=O)NCc4c(OC)cc(C)[nH]c4=O)cc23)ccn1` (single isomer, unassigned) [Compound 182, (S)—N-((4-methoxy-6-methyl-2-oxo-1,2-dihydropyridin-3-yl)methyl)-6-methyl-1-(2-(methylamino)pyridin-4-yl)-5-(1-(4-(2,2,2-trifluoroethyl)piperazin-1-yl)ethyl)indolizine-7-formamide or (R)—N-((4-methoxy-6-methyl-2-oxo-1,2-dihydropyridin-3-yl)methyl)-6-methyl-1-(2-(methylamino)pyridin-4-yl)-5-(1-(4-(2,2,2-trifluoroethyl)piperazin-1-yl)ethyl)indolizine-7-formamide], which IC50 is on record?
A: 100 to 1000 nM

Q: How did the IC50 turn out when `COc1cc(-c2ccn3c([C@H](C)N4CCN(CC(F)(F)F)CC4)c(C)c(C(=O)NCc4c(OC)cc(C)[nH]c4=O)cc23)ccn1` (single isomer, unassigned) [Compound 194, (S)—N-((4-methoxy-6-methyl-2-oxo-1,2-dihydropyridin-3-yl)methyl)-1-(2-methoxypyridin-4-yl)-6-methyl-5-(1-(4-(2,2,2-trifluoroethyl)piperazin-1-yl)ethyl)indolizine-7-carboxamide or (R)—N-((4-methoxy-6-methyl-2-oxo-1,2-dihydropyridin-3-yl)methyl)-1-(2-methoxypyridin-4-yl)-6-methyl-5-(1-(4-(2,2,2-trifluoroethyl)piperazin-1-yl)ethyl)indolizine-7-carboxamide] was run?
A: < 100 nM

Q: For `COc1cc(-c2ccn3c([C@H](C)N4CCN(CC(F)(F)F)CC4)c(C)c(C(=O)NCc4c(OC)cc(C)[nH]c4=O)cc23)ccn1` (single isomer, unassigned) [Compound 195, (S)—N-((4-methoxy-6-methyl-2-oxo-1,2-dihydropyridin-3-yl)methyl)-1-(2-methoxypyridin-4-yl)-6-methyl-5-(1-(4-(2,2,2-trifluoroethyl)piperazin-1-yl)ethyl)indolizine-7-carboxamide or (R)—N-((4-methoxy-6-methyl-2-oxo-1,2-dihydropyridin-3-yl)methyl)-1-(2-methoxypyridin-4-yl)-6-methyl-5-(1-(4-(2,2,2-trifluoroethyl)piperazin-1-yl)ethyl)indolizine-7-carboxamide], which IC50 is on record?
A: 100 to 1000 nM

Q: Which IC50 does the source give for `COc1cc(C)[nH]c(=O)c1CNC(=O)c1cc2c(-c3cnc(C)nc3)ccn2c([C@H](C)N2CCN(CC(F)(F)F)CC2)c1C` (single isomer, unassigned) [Compound 197, (S)—N-((4-methoxy-6-methyl-2-oxo-1,2-dihydropyridin-3-yl)methyl)-6-methyl-1-(2-methylpyrimidin-5-yl)-5-(1-(4-(2,2,2-trifluoroethyl)piperazin-1-yl)ethyl)indolizine-7-formamide or (R)—N-((4-methoxy-6-methyl-2-oxo-1,2-dihydropyridin-3-yl)methyl)-6-methyl-1-(2-methylpyrimidin-5-yl)-5-(1-(4-(2,2,2-trifluoroethyl)piperazin-1-yl)ethyl)indolizine-7-formamide] here?
A: < 100 nM

Q: Which IC50 does the source give for `COc1cc(C)[nH]c(=O)c1CNC(=O)c1cc2c(-c3cnc(C)nc3)ccn2c([C@H](C)N2CCN(CC(F)(F)F)CC2)c1C` (single isomer, unassigned) [Compound 198, (S)—N-((4-methoxy-6-methyl-2-oxo-1,2-dihydropyridin-3-yl)methyl)-6-methyl-1-(2-methylpyrimidin-5-yl)-5-(1-(4-(2,2,2-trifluoroethyl)piperazin-1-yl)ethyl)indolizine-7-formamide or (R)—N-((4-methoxy-6-methyl-2-oxo-1,2-dihydropyridin-3-yl)methyl)-6-methyl-1-(2-methylpyrimidin-5-yl)-5-(1-(4-(2,2,2-trifluoroethyl)piperazin-1-yl)ethyl)indolizine-7-formamide] here?
A: < 100 nM

Q: With `COc1cc(C)[nH]c(=O)c1CNC(=O)c1cc2c(-c3ccc(C)nn3)ccn2c([C@H](C)N2CCN(CC(F)(F)F)CC2)c1C` (single isomer, unassigned) [Compound 200, (S)—N-((4-methoxy-6-methyl-2-oxo-1,2-dihydropyridin-3-yl)methyl)-6-methyl-1-(6-methylpyridazin-3-yl)-5-(1-(4-(2,2,2-trifluoroethyl)piperazin-1-yl)ethyl)indolizine-7-formamide or (R)—N-((4-methoxy-6-methyl-2-oxo-1,2-dihydropyridin-3-yl)methyl)-6-methyl-1-(6-methylpyridazin-3-yl)-5-(1-(4-(2,2,2-trifluoroethyl)piperazin-1-yl)ethyl)indolizine-7-formamide] as the compound, how does the IC50 read?
A: < 100 nM

Q: `COc1cc(C)[nH]c(=O)c1CNC(=O)c1cc2c(-c3ccc(C)nn3)ccn2c([C@H](C)N2CCN(CC(F)(F)F)CC2)c1C` (single isomer, unassigned) [Compound 201, (S)—N-((4-methoxy-6-methyl-2-oxo-1,2-dihydropyridin-3-yl)methyl)-6-methyl-1-(6-methylpyridazin-3-yl)-5-(1-(4-(2,2,2-trifluoroethyl)piperazin-1-yl)ethyl)indolizine-7-formamide or (R)—N-((4-methoxy-6-methyl-2-oxo-1,2-dihydropyridin-3-yl)methyl)-6-methyl-1-(6-methylpyridazin-3-yl)-5-(1-(4-(2,2,2-trifluoroethyl)piperazin-1-yl)ethyl)indolizine-7-formamide] was tested. Which IC50 did it give?
A: < 100 nM

Q: With `COc1cc(-c2cc3cc(C(=O)NCc4c(C)cc(C)[nH]c4=O)c(C)c(C(C)OC)n3c2)cc(OC)c1OC` (centres unmarked) [Compound 151] as the compound, how does the IC50 read?
A: < 100 nM

Q: With `COc1cc(C)[nH]c(=O)c1CNC(=O)c1cc2c(-c3ccc(N)nc3)ccn2c(C(C)N2CCN(CC(F)(F)F)CC2)c1C` (centres unmarked) [Compound 157] as the compound, how does the IC50 read?
A: < 100 nM

Q: With `COc1cc(C)[nH]c(=O)c1CNC(=O)c1cc2c(-c3c(C)noc3C)ccn2c(C(C)N2CCN(CC(F)(F)F)CC2)c1C` (centres unmarked) [Compound 161, 1-(3,5-dimethylisoxazol-4-yl)-N-((4-methoxy-6-methyl-2-oxo-1,2-dihydropyridin-3-yl)methyl)-6-methyl-5-(1-(4-(2,2,2-trifluoroethyl)piperazin-1-yl)ethyl)indolizine-7-carboxamide] as the compound, how does the IC50 read?
A: < 100 nM

Q: Which IC50 does the source give for `CNc1ccc(-c2ccn3c(C(C)N4CCN(CC(F)(F)F)CC4)c(C)c(C(=O)NCc4c(OC)cc(C)[nH]c4=O)cc23)cn1` (centres unmarked) [Compound 163, N-((4-methoxy-6-methyl-2-oxo-1,2-dihydropyridin-3-yl)methyl)-6-methyl-1-(6-(methylamino)pyridin-3-yl)-5-(1-(4-(2,2,2-trifluoroethyl)piperazin-1-yl)ethyl)indolizine-7-carboxamide] here?
A: < 100 nM

Q: Which IC50 does the source give for `COc1cc(C)[nH]c(=O)c1CNC(=O)c1cc2c(-c3cc(C)nc(C)c3)ccn2c(C(C)N2CCN(CC(F)(F)F)CC2)c1C` (centres unmarked) [Compound 173] here?
A: < 100 nM

Q: For `COc1cc(C)[nH]c(=O)c1CNC(=O)c1cc2c(-c3ccc(C)nc3C)ccn2c(C(C)N2CCN(CC(F)(F)F)CC2)c1C` (centres unmarked) [Compound 176], which IC50 is on record?
A: < 100 nM

Q: How did the IC50 turn out when `COc1cc(C)[nH]c(=O)c1CNC(=O)c1cc2c(-c3cccnc3N(C)C)ccn2c(C(C)N2CCN(CC(F)(F)F)CC2)c1C` (centres unmarked) [Compound 179, 1-(2-(dimethylamino)pyridin-3-yl)-N-((4-methoxy-6-methyl-2-oxo-1,2-dihydropyridin-3-yl)methyl)-6-methyl-5-(1-(4-(2,2,2-trifluoroethyl)piperazin-1-yl)ethyl)indolizine-7-carboxamide] was run?
A: < 100 nM

Q: With `COc1cc(C)[nH]c(=O)c1CNC(=O)c1cc2c(-c3ncnn3C)ccn2c(C(C)N2CCN(CC(F)(F)F)CC2)c1C` (centres unmarked) [Compound 183, N-((4-methoxy-6-methyl-2-oxo-1,2-dihydropyridin-3-yl)methyl)-6-methyl-1-(1-methyl-1H-1,2,4-triazol-5-yl)-5-(1-(4-(2,2,2-trifluoroethyl)piperazin-1-yl)ethyl)indolizine-7-carboxamide] as the compound, how does the IC50 read?
A: < 100 nM

same assay, conditions: read-out: IC50 (EZH2_Y641F); EZH2 Y641F PRC2 complex, HTRF; numeric values

Q: For `COc1cc(C)[nH]c(=O)c1CNC(=O)c1cc2c(-c3cn[nH]c3)ccn2c(C(C)N2CCOCC2)c1C` (centres unmarked) [Compound 152, N-((4-Methoxy-6-methyl-2-oxo-1,2-dihydropyridin-3-yl)methyl)-6-methyl-5-(1-morpholinylethyl)-1-(1H-pyrazol-4-yl)indolizine-7-carboxamide], which IC50 is on record?
A: 2.65 nM

Q: For `COc1cc(C)[nH]c(=O)c1CNC(=O)c1cc2c(-c3ccn[nH]3)ccn2c(C(C)N2CCOCC2)c1C` (centres unmarked) [Compound 153, N-((4-Methoxy-6-methyl-2-oxo-1,2-dihydropyridin-3-yl)methyl)-6-methyl-5-(1-morpholinylethyl)-1-(1H-pyrazol-5-yl)indolizine-7-carboxamide], which IC50 is on record?
A: 2.15 nM
